Data: patent US20140100138A1, “MECHANICAL STRESS RESPONSE ANALYSIS OF CELLS AND TISSUES” (The Regents of The University of California, priority 2012, published 2014)

Key:
[1] = 2-APB 10 μM, 30 μM or 100 μM; cited from earlier work
HUVECs [2] = assay: 96-well plate screen of microtsunami-generated Ca2+ signaling, percentage of cells signaling 100-150 μm from μCB center; assay type: cell-based, human; settings: 96-well screen; for effect on microtsunami-induced Ca2+ signaling in Ca2+ containing media: HHBSS+ with 2 g/L D-glucose, FIG. 9D columns 8-10; for effect on microtsunami-induced Ca2+ signaling in Ca2+ free media: HHBSS- with 3 mM EGTA, 2-APB 10-100 μM, PP2 10 μM, Verapamil 50 nM, FIG. 9D columns 1-5
Description: 96 well plates (Invitro-Scientific) were coated with fibronectin and P4 HUVECs were plated in each well. […] DMSO was also added as a control corresponding to the highest amount added from solution of the drugs, 0.3%. The first seven columns contained the previously used HHBSS- with 3 mM EGTA and the last five columns contained HHBSS+ supplemented with 2 g/L D-glucose.
The experiments were performed in a 96-well plate where twelve conditions, each with eight replicates, were tested for their potential effect on μTsunami generated Ca^2+ signaling.

HUVECs [3] = assay: Cell lysate / ATP control experiments for Ca2+ signaling with and without microtsunami exposure; assay type: cell-based, human
Description: HUVECs grown in a tissue culture flask at full confluency were resuspended in standard HBSS- at a concentration of 1.5×10^7 cells/mL. Cell lysate solution was prepared by subjecting this solution to repeated freeze-thaw cycles at −80° C. and then sonicated on ice for 30 s.
Exposure to cell lysate alone was confirmed as not responsible for the observed Ca^2+ dynamics. Cells were dosed with a solution of cell lysate immediately following microtsunami exposure. In addition, cells were exposed to cell lysate alone. As positive controls, the Ca^2+ signaling response produced by ATP was measured with and without microtsunami exposure. As a negative control, Ca^2+ signaling without cell lysate, ATP, or microtsunami exposure was measured.
Probability of Ca2+ signaling produced by microtsunami exposure is plotted as a function of distance from the site of laser microbeam irradiation. Two control experiments were conducted to test whether the observed Ca^2+ was due to cellular exposure to cell lysate produced by the microtsunami. In the first, 150 μL of cell lysate was administered following a Ca^2+ signaling event generated by microtsunami exposure. […] Both experiments elicited an average signaling probability of <1%. […] The reduced ATP signaling probability following microtsunami exposure was due to cell lysis/necrosis produced by the microtsunami.

Compound: NCCOB(c1ccccc1)c1ccccc1 [2-APB, 2-Aminoethoxydiphenylborate]
- inhibition of Ca2+ release following stimulation using a bolus of ATP [1]: dose-dependent inhibition of Ca^2+ release
- effect on microtsunami-induced Ca2+ signaling in Ca2+ containing media (HUVECs [2]): suppression of signaling
- effect on microtsunami-induced Ca2+ signaling in Ca2+ free media (HUVECs [2]): dose-dependent inhibitory effect

Compound: CC(C)(C)n1nc(-c2ccc(Cl)cc2)c2c(N)ncnc21 [PP2]
- effect on microtsunami-induced Ca2+ signaling in Ca2+ containing media (HUVECs [2]): significant microtsunami-induced mechanosignaling was observed
- effect on microtsunami-induced Ca2+ signaling in Ca2+ free media (HUVECs [2]): neither PP2 nor Verapamil (FIG. 9D, columns 4, 5) affected Ca^2+ signaling

Compound: Nc1ncnc2c1ncn2[C@@H]1O[C@H](COP(=O)(O)OP(=O)(O)OP(=O)(O)O)[C@@H](O)[C@H]1O [ATP]
- average Ca2+ signaling probability, substance given following microtsunami exposure (HUVECs [3]; administered after microtsunami, ATP 50 μM, cell lysate 150 μL): 60%
- average Ca2+ signaling probability, substance given without microtsunami exposure (HUVECs [3]; no microtsunami, ATP 50 μM): > 90%
- Ca2+ signaling response (in words) (HUVECs [3]; with and without microtsunami exposure): strong Ca^2+ signaling response
